Data published in US8618129B2, “Substituted 1-oxo-dihydroisoquinoline-3-carboxamides as KCNQ2/3 modulators” (Gruenenthal GmbH, priority 2010, dated 2013).
Each block holds one compound with its values, some of them ahead of it.

Key:
[1] = target: T1, KCNQ2/3 channels (Homo sapiens, UniProt O43525+O43526); assay: Fluorescence assay using a voltage sensitive dye (fluorimetry); assay type: cell-based; settings: CHO-K1 cells expressing KCNQ2/3 channels; for Emax: agonistic efficacy relative to retigabine = 100%
T1 construct: expressed in transfected cells; host or cells: CHO-K1 cells, kept under selection antibiotics
Method: Method I. Fluorescence Assay Using a Voltage Sensitive Dye
Human CHO-K1 cells expressing KCNQ2/3 channels are cultivated adherently at 37° C., 5% CO2 and 95% humidity in cell culture bottles (e.g. 80 cm^2 TC flasks, Nunc) with DMEM-high glucose (Sigma Aldrich, D7777) including 10% FCS (PAN Biotech, e.g. 3302-P270521) or alternatively MEM Alpha Medium (1×, liquid, Invitrogen, #22571), 10% fetal calf serum (FCS) (Invitrogen, #10270-106, heat-inactivated) and the necessary selection antibiotics.
Before being sown out for the measurements, the cells are washed with a 1× DPBS buffer without Ca^2+/Mg^2+ (e.g. Invitrogen, #14190-094) and detached from the bottom of the culture vessel by means of Accutase (PAA Laboratories, #L11-007) (incubation with Accutase for 15 min at 37° C.). The cell count then present is determined using a CASY™ cell counter (TCC model, Schärfe System) in order subsequently to apply, depending on the density optimization for the individual cell line, 20,000-30,000 cells/well/100 μl of the described nutrient medium to 96-well measuring plates of the Corning™ CellBIND™ type (Flat Clear Bottom Black Polystyrene Microplates, #3340). Incubation is then carried out for one hour at room temperature, without gassing or adjusting the humidity, followed by incubation for 24 hours at 37° C., 5% CO2 and 95% humidity.
The voltage-sensitive fluorescent dye from the Membrane Potential Assay Kit (Red™ Bulk format part R8123 for FLIPR, MDS Analytical Technologies™) is prepared by dissolving the contents of a vessel Membrane Potential Assay Kit Red Component A in 200 ml of extracellular buffer (ES buffer, 120 mM NaCl, 1 mM KCl, 10 mM HEPES, 2 mM CaCl2, 2 mM MgCl2, 10 mM glucose; pH 7.4). After removal of the nutrient medium, the cells are washed with 200 μl of ES buffer, then covered with a layer of 100 μl of the dye solution prepared above and incubated for 45 min at room temperature with the exclusion of light.
The fluorescence measurements are carried out with a BMG Labtech FLUOstar™, BMG Labtech NOVOstar™ or BMG Labtech POLARstar™ instrument (525 nm excitation, 560 nm emission, Bottom Read mode). After incubation of the dye, 50 μl of the test substances in the desired concentrations, or 50 μl of ES buffer for control purposes, are introduced into separate cavities of the measuring plate and incubated for 30 min at room temperature while being shielded from light. The fluorescence intensity of the dye is then measured for 5 min and the fluorescence value F1 of each well is thus determined at a given, constant time. 15 μl of a […] KCl solution ([…]) are then added to each well. The change in fluorescence is subsequently measured until all the relevant measured values have been obtained (mainly 5-30 min). At a given time after KCl application, a fluorescence value F2 is determined, in this case at the time of the fluorescence peak.
For calculation, the fluorescence intensity F2 is compared with the fluorescence intensity F1, and the agonistic activity of the target compound on the potassium channel is determined therefrom. F2 and F1 are calculated as follows: […]
A substance has an agonistic activity on the potassium channel when
[formula] is to be observed as the dosage of the target compound increases. Calculations of EC50 and IC50 values are carried out with the aid of ‘Prism v4.0’ software (GraphPad Software™).

[2] = test system: withdrawal reflex of the rat tail (tail flick); assay: Low-intensity tail flick test (rat); assay type: in vivo; settings: dose 10.00 mg/kg (in brackets in the cell)
Method: Method II. Low-Intensity Tail Flick Test (Rat)
In the low-intensity tail flick test, the determination of the antinociceptive effect of the compounds according to the invention towards an acute noxious thermal stimulus is carried out by measuring the withdrawal reflex of the rat tail (tail flick) in response to a radiant heat beam (analgesia meter; model 2011 of the company Rhema Labortechnik, Hofheim, Germany) according to the method described by D'Amour and Smith (J. Pharm. Exp. Ther. 72, 74 79 (1941). To this end, the rats were placed in a plexiglas restrainer, and a low-intensity radiant heat beam (48° C.) was focused onto the dorsal surface of the tail root. The stimulus intensity was adjusted to result in a mean pre-drug control withdrawal latency of about 7 s, thus also allowing a supraspinal modulation of the spinally mediated acute nociceptive reflex. […] Before administration of a compound according to the invention, the animals were pre-tested twice in the course of five minutes and the mean of these measurements was calculated as the pre-test mean. The antinociceptive effect was determined at 20, 40 and 60 min after peroral compound administration. The antinociceptive effect was calculated based on the increase in the tail withdrawal latency according to the following formula and is expressed as percentage of the maximum possible effect (MPE [%]): MPE=[(T1−T0)/(T2−T0)]*100 […]

Compound: Cc1c(C(=O)NCc2cccc(F)c2)n(C)c(=O)c2cc(C(F)(F)F)ccc12 [Example 1, N-(3-fluorobenzyl)-2,4-dimethyl-1-oxo-7-(trifluoromethyl)-1,2-dihydroisoquinoline-3-carboxamide]
EC50 [1]: 1950 nM | Emax [1]: 164%

Compound: Cc1c(C(=O)NCc2cccc(F)c2)n(C(C)C)c(=O)c2cc(C(F)(F)F)ccc12 [Example 4, N-(3-fluorobenzyl)-2-isopropyl-4-methyl-1-oxo-7-(trifluoromethyl)-1,2-dihydroisoquinoline-3-carboxamide]
EC50 [1]: 381 nM | Emax [1]: 144%

These reach a lower EC50 [1]. Values come first.

EC50 [1]: 283 nM | Emax [1]: 87%
Compound: COCCn1c(C(=O)NCc2cccc(F)c2)c(C)c2ccc(C(F)(F)F)cc2c1=O [Example 5, N-(3-fluorobenzyl)-2-(2-methoxyethyl)-4-methyl-1-oxo-7-(trifluoromethyl)-1,2-dihydroisoquinoline-3-carboxamide]

EC50 [1]: 196 nM | Emax [1]: 103%
Compound: CCn1c(C(=O)NCc2cccc(F)c2)c(C)c2ccc(C(F)(F)F)cc2c1=O [Example 3, 2-ethyl-N-(3-fluorobenzyl)-4-methyl-1-oxo-7-(trifluoromethyl)-1,2-dihydroisoquinoline-3-carboxamide]

EC50 [1]: 124 nM | Emax [1]: 134%
Compound: CCCn1c(C(=O)NCc2cccc(F)c2)c(C)c2ccc(C(F)(F)F)cc2c1=O [Example 2, N-(3-fluorobenzyl)-4-methyl-1-oxo-2-propyl-7-(trifluoromethyl)-1,2-dihydroisoquinoline-3-carboxamide]
Low intensity tail flick, rat, peroral, % MPE (dose [mg/kg]) [2]: 10 (10.00) % MPE
